Like-named read-outs stand apart in the source and are kept apart here.
How the values were obtained:
[1] = test system: human motor neurons carrying SOD1, C9ORF72, and FUS mutations; conditions: ref Wainger et al., 2014; cited from earlier work
[2] = test system: lower motor neuron hyperexcitability; conditions: two clinical trials; ref Kovalchuk et al., 2018; Wainger et al., 2021; cited from earlier work
SOD1(A4V) motor neurons [3] = experiment: Multiple electrode array; format: cell-based, human; conditions: for SOD1(A4V) motor neuron excitability: DRD2/3 agonists, MEA (Figure 4C)
[4] = test system: SOD1(A4V) ALS motor neurons; format: cell-based, human
patients with ALS = conditions: small-scale clinical trial; ref Nagata et al., 2016; cited from earlier work
DRD2 = conditions: ref McCall et al., 2005; cited from earlier work
DRD3 = conditions: cited from earlier work
SOD1(A4V) motor neurons [5] = experiment: Patch clamp current-clamp recording of spontaneous firing; format: cell-based, human
[6] = test system: differentiated human ALS motor neurons; experiment: Fura-2 calcium response imaging; format: cell-based; conditions: fura-2 imaging
[7] = calcium wave count normalized to the DMSO control (100.00)
[8] = activity normalized to the DMSO control (100.00)

## CCOC(=O)Nc1ccc(NCc2ccc(F)cc2)cc1N [retigabine]
[1]
  firing of human motor neurons: block firing
[2]
  lower motor neuron hyperexcitability in patients with ALS: decreased lower motor neuron hyperexcitability

## COc1ccc(Cl)cc1[C@]1(F)C(=O)Nc2cc(C(F)(F)F)ccc21 [Maxipost (BMS-204352)]
SOD1(A4V) motor neurons [3]
  MEA (%) spontaneous motor neuron activity: 22.32 ± 1.1%
[4]; [7]
  GCaMP6 (%) spontaneous motor neuron activity: 36.67 ± 39.8%

## Cc1cc(C)c(NC(=O)C2CC3CCC2C3)c(C)c1 (stereo not shown) [ML213]
SOD1(A4V) motor neurons [3]
  MEA (%) spontaneous motor neuron activity: 0.38 ± 0.4%
[4]; [7]
  GCaMP6 (%) spontaneous motor neuron activity: 0.00 ± 0.0%

## O=C1NC(=O)C(c2ccccc2)(c2ccccc2)N1 [Phenytoin]
SOD1(A4V) motor neurons [3]; [8]
  MEA (%) spontaneous motor neuron activity: 103.78 ± 41.1%
[4]; [7]
  GCaMP6 (%) spontaneous motor neuron activity: 116.67 ± 56.5%

## Nc1nc2c(ccc3ccccc32)s1 [SKA 31]
SOD1(A4V) motor neurons [3]
  MEA (%) spontaneous motor neuron activity: 106.67 ± 44.4%
[4]; [7]
  GCaMP6 (%) spontaneous motor neuron activity: 123.33 ± 60.8%

## CCn1c(=O)[nH]c2ccccc21 [1-Ebio (SB-423901)]
SOD1(A4V) motor neurons [3]
  MEA (%) spontaneous motor neuron activity: 122.81 ± 27.8%
[4]; [7]
  GCaMP6 (%) spontaneous motor neuron activity: 103.33 ± 21.7%

## CC(C)C[C@H]1C(=O)N2CCC[C@H]2[C@]2(O)O[C@](NC(=O)[C@@H]3C=C4c5cccc6[nH]c(Br)c(c56)C[C@H]4N(C)C3)(C(C)C)C(=O)N12 [bromocriptine]
SOD1(A4V) motor neurons [3]
  SOD1(A4V) motor neuron excitability: decreased SOD1(A4V) motor neuron excitability
Patients with ALS
  motor function in patients with ALS: sustained motor function

## CCOC(=O)Nc1ccc(NCc2ccc(F)cc2)nc1N [flupirtine]
[1]
  firing of human motor neurons: block firing

## Cc1cc(NC2CCCCC2)nc(-n2nc(C)cc2C)n1 [CyPPA (NS6277)]
SOD1(A4V) motor neurons [3]
  MEA (%) spontaneous motor neuron activity: 12.72 ± 5.8%
[4]; [7]
  GCaMP6 (%) spontaneous motor neuron activity: 80.00 ± 27.4%

## CN[C@@H]1Cc2cccc3[nH]c(=O)n(c23)C1 [sumanirole]
SOD1(A4V) motor neurons [3]
  SOD1(A4V) motor neuron excitability: decreased SOD1(A4V) motor neuron excitability
DRD2
  Ki: 2 nM
DRD3
  Ki: 1940 nM
SOD1(A4V) motor neurons [5]; patch clamp, accompanying the decrease in firing
  membrane potential change: slight hyperpolarization
SOD1(A4V) motor neurons [5]; patch clamp, sumanirole 10 μM perfusion, control neurons
  firing frequency: decrease in firing frequency
SOD1(A4V) motor neurons [5]; shRNA-mediated DRD2 knockdown, sumanirole 10 μM
  reduced excitability in DRD2 knockdown motor neurons: insensitive

## COCC(=O)O[C@]1(CCN(C)CCCc2nc3ccccc3[nH]2)CCc2cc(F)ccc2[C@@H]1C(C)C [Mibefradil]
SOD1(A4V) motor neurons [3]
  MEA (%) spontaneous motor neuron activity: 0.02± 0.0%
[4]; [7]
  GCaMP6 (%) spontaneous motor neuron activity: 0.00 ± 0.0%

## O=C(Nc1ccc(Cl)nc1)c1ccc(F)c(F)c1 [ICA-27243]
SOD1(A4V) motor neurons [3]; [8]
  MEA (%) spontaneous motor neuron activity: 0.20 ± 0.1%
[4]; [7]
  GCaMP6 (%) spontaneous motor neuron activity: 0.00 ± 0.0%

## CN(C)C(=O)C(CCN1CCC(O)(c2ccc(Cl)cc2)CC1)(c1ccccc1)c1ccccc1 [Loperamide]
SOD1(A4V) motor neurons [3]
  MEA (%) spontaneous motor neuron activity: 0.02 ± 0.0%
[4]
  GCaMP6 (%) spontaneous motor neuron activity: 0.00± 0.0%

## Cc1o[nH]c(=O)c1C[C@H](N)C(=O)O [AMPA]
[6]
  calcium influx: elicits a large calcium influx

## O=C(Nc1cnc(Cl)nc1)c1ccc(F)c(F)c1 [ICA 069673]
SOD1(A4V) motor neurons [3]
  MEA (%) spontaneous motor neuron activity: 0.07 ± 0.0%
[4]; [7]
  GCaMP6 (%) spontaneous motor neuron activity: 13.33 ± 13.9%

## O=C1Nc2c(ccc(Cl)c2Cl)C1=NO [NS309]
SOD1(A4V) motor neurons [3]
  MEA (%) spontaneous motor neuron activity: 86.56 ± 14.4%
[4]; [7]
  GCaMP6 (%) spontaneous motor neuron activity: 110.00 ± 38.4%

— publication PMC8209673 (Cell reports, 2021)
